Measured values as given in PMC8667898, “Topo II inhibition and DNA intercalation by new phthalazine-based derivatives as potent anticancer agents: design, synthesis, anti-proliferative, docking, and in vivo studies” (Journal of Enzyme Inhibition and Medicinal Chemistry, 2021).
“And” between values parts separate entries of the source, which are not always exact repeats. Identical values can stand only once.

Key:
human Topo II = biological target: T1, human Topo II (Homo sapiens, UniProt P11388); assay: Topoisomerase II inhibitory activity (TopoGEN drug screening kit); type: biochemical; conditions: three independent experiments
T1 construct: purchased TopoGEN, Inc., Columbus
Experimental: The activity of topoisomerase II was determined according to the reported procedure described by Patra et al.[42]. […]
4.2.3. Measurement of topoisomerase II activity
Compounds (8a, 8b, 9a, 9c, 9d, 12a, and 12b) were further evaluated to assess their Topo II inhibitory activities. In this test, Topo II drug screening kit (TopoGEN, Inc., Columbus) was utilized to determine the Topo II activity. […] A typical enzyme […]
reaction contained a mixture of human Topo II (2 µL), substrate super coiled pHot1 DNA (0.25 µg), 50 µg/mL test compound (2 µL), and assay buffer (4 µL). The reaction started upon incubation of the mixture in 37 °C for 30 min. The reaction was terminated by addition of 10% sodium dodecylsulphate (2 µL) and proteinase K (50 µg/mL) at 37 °C for 15 min. followed by incubation for 15 min at 37 °C.
Then, the DNA was run on 1% agarose gel in BioRad gel electrophoresis system for 1–2 h followed by staining with GelRedTM stain for 2 h and destained for 15 min with TAE buffer. The gel was imaged Via BioRad’s Gel DocTMEZ system. Both supercoiled and linear strands DNA were incorporated in the gel as markers for DNA-Topo II intercalators. The results of IC50 values were calculated using the GraphPad Prism version 5.0. Each reaction was performed in duplicate, and at least three independent determinations of each IC50 were made.

[1] = Histopathological examination of liver tissues of SEC-bearing mice; type: in vivo, Swiss albino mice; conditions: H&E stain, ×200
Experimental: (§1) The experimental animals were randomly divided into four groups. Group 1 served as the normal saline control (5 ml/kg B.Wt., I.P.). Group 2 served as the SEC control (1 × 10^6 cells/mouse). Group 3 served as the compound-treated group (5 mg/kg B.Wt., I.P.). […] Bodyweight and survival were recorded daily until the 24th day in both treated and control groups. At the end of the experiment, the blood of each group was collected under light anaesthesia to the estimate of hematological and biochemical assays. The anaesthetised animals were then sacrificed for evaluation of the antitumor activity and histopathological examination.
Specimens of liver-sacrificed mice were fixed in 10% saline formalin. The fixed liver specimens were dehydrated in ascending series of ethyl alcohol and embedded in paraffin. Sections at […] thicknesses were stained with haematoxylin and eosin and examined under the light microscope.

[2] = test system: HepG-2 cells (hepatocellular carcinoma); assay: MTT anti-proliferative assay, HepG-2; type: cell-based, human
Experimental: Anti-proliferative activities of the target compounds were assessed via the standard MTT method[38–40] against three cancer cell lines, namely, hepatocellular carcinoma (HepG-2), colorectal carcinoma (HCT-116), and human breast adenocarcinoma (MCF-7).
Anti-proliferative activity of the synthesised compounds was estimated using the MTT assay protocol[8]^,[38–40] as shown in Supplementary data.
4.2.1. In vitro anti-proliferative activity against MCF-7, HepG-2 and HCT-116 The cells were cultured in RPMI-1640 medium supplemented with 10% fetal bovine serum (FBS), penicillin (100 unit /mL) and streptomycin sulphate (100µg/mL) at 37 °C in a 5% CO2 incubator.
Then, cells were dropped in 96-well plates at a density of 3-8 × 10^3 cells/well and incubated for two days in a 5% CO2 incubator at 37 °C. Then, the cells were treated with the synthesized compounds and the cell cultures were continued incubated for 24 h. However, Different concentrations of the compound under test (0.0, 5.0, 12.5, 25.0 and 50 mg/ml) were added to the cell monolayer. Then, (3-[4,5-dimethylthiazol-2-yl]- 2,5-diphenyltetrazolium bromide) MTT solution (20 µl, 5mg/mL) was added to each well and incubated for additional 4 h. The formed purple crystals of MTT-formazan were dissolved in 100 µl DMSO each well; the absorbance of each well was measured at 570 nm using a plate reader (EXL 800, USA). All of the compounds were tested three times. The relative cell viability in percentage was calculated.
The data represented the mean of three independent experiments in triplicate and were expressed as means ± SD. […]

[3] = Hematological and biochemical blood assays in SEC-bearing mice; type: in vivo, Swiss albino mice; conditions: 5 mg/kg BW, Mean ± SEM (n = 7), 5 mg/kg
Experimental: At the end of the experiment, animals from different groups were sacrificed, and blood samples were collected for hematological parameters, including Hb, RBC’s, and WBC’s levels, and serum for determination of liver enzymes ALT, AST levels, and proteins.
as §1
At the end of the experiment, animals from different groups were sacrificed, and blood samples were collected for hematological parameters including, Hb, RBC’s, and WBC’s levels, and serum for determination of liver enzymes ALT, AST levels, and proteins. Complete blood count (CBC) was investigated using the Abbott CELL-DYN®1800 automated haematology analyser (USA) using ready-made kits (Abbott Laboratories, Abbott Park, IL, USA). Activities of aspartate aminotransferase (AST) and alanine aminotransferase (ALT) were evaluated using commercial kits (ELITech clinical systems, France). Serum albumin level was determined by kit purchased from STANBIO Company (USA). Protein content was determined by colorimetric method using ready-made kits produced by Instrumentation Laboratory SpA, Inova diagnostics, Milano, Italy.

T1 sequence (P11388 whole entry): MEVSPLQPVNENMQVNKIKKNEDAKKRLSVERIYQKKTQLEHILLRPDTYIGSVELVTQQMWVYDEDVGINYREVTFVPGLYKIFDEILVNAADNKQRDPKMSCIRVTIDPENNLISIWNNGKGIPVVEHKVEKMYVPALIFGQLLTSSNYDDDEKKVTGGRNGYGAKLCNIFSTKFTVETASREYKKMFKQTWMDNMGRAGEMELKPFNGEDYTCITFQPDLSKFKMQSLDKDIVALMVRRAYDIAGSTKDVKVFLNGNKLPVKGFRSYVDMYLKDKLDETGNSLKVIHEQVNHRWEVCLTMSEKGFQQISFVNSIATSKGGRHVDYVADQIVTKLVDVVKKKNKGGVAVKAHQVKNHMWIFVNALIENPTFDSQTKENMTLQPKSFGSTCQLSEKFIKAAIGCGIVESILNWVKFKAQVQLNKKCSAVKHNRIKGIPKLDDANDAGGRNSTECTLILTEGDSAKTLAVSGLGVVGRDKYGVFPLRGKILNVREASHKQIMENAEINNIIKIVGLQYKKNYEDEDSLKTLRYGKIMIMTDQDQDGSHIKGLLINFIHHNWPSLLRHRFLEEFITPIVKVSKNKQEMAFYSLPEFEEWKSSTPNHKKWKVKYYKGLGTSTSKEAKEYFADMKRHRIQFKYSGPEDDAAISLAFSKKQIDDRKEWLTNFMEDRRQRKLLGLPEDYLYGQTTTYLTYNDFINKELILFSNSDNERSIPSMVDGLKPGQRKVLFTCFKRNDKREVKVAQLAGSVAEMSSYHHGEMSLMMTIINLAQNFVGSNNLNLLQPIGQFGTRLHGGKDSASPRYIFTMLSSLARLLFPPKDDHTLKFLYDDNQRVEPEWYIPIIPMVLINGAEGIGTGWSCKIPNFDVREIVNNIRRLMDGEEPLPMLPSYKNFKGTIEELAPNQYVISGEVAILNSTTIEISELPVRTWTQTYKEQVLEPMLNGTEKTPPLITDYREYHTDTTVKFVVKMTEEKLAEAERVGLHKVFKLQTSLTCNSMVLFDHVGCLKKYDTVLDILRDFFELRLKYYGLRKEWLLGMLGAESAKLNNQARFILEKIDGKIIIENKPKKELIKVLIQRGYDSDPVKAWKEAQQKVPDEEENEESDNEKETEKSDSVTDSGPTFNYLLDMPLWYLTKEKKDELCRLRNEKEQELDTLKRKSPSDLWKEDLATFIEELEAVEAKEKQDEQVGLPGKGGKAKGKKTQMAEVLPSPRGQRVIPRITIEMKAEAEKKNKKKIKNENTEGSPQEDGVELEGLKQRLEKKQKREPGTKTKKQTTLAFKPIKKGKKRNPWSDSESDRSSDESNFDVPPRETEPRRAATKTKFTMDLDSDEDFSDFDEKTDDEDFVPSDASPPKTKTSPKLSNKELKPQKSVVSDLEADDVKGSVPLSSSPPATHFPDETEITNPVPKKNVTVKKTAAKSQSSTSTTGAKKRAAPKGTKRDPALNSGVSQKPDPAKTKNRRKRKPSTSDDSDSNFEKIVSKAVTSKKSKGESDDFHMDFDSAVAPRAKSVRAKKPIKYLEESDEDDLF

IC50 (human Topo II): 7.02 ± 0.54 µM | Albumin [3]: 6.25 g/dL | Hb [3]: 8.2 g/dL | RBCs count [3]: 5.37 ×10^6/µL and 5.37 ± 0.37 ×10^6/µL | Total Protein [3]: 8.04 g/dL | WBCs count [3]: 3720 µL⁻¹
SMILES: CCCc1nnc2c3ccccc3c(NN=Cc3ccc([N+](=O)[O-])cc3)nn12 [Compound 9d, 6-[2–(4-Nitrobenzylidene)hydrazineyl]-3-propyl-[1,2, 4]triazolo[3,4-a]phthalazine]
Histopathological finding in liver tissue [1]: hepatic cells are near normal and show tissue improvement as compared with a little hydropic degeneration | IC50 ([2]; Homo sapiens, HepG2, MTT, mean ± SD of three separate experiments, read-out: In vitro Cytotoxicity IC50 HepG-2): 5.08 ± 0.17 µM | times more active than doxorubicin, HepG2 ([2]; ratio of IC50 values vs doxorubicin): 1.63 times | ALT [3]: 42.9 U/L | AST [3]: 55.6 U/L
